For two compounds, Activity results are on record in ChEMBL document CHEMBL4312001, “Combined therapy with Benznidazole and repurposed drugs Clofazimine and Benidipine for chronic Chagas disease” (Eur J Med Chem, 2019).

The source made the active and inactive calls. The rule behind the calls is not given here.

Series [1] relates to Trypanosoma cruzi. Kind of series: Antitrypanosomal activity against Trypanosoma cruzi K98 bloodstream form infected in C3H/HeNk mouse assessed as effect on RR interval at 30 to 75 mg/kg/day, po administered via gavage for 30 consecutive days starting from 90 days post infection and measured at 120 to 170 days post infection by electrocardiographic analysis. Type of series: functional, organism-based.

For series [2], the system named is Trypanosoma cruzi. Kind of series: Antitrypanosomal activity against Trypanosoma cruzi K98 bloodstream form infected in C3H/HeNk mouse assessed as effect on QT interval at 30 to 75 mg/kg/day, po administered via gavage for 30 consecutive days starting from 90 days post infection and measured at 120 to 170 days post infection by electrocardiographic analysis. Type of series: functional, organism-based.

Series [3] has as its system Trypanosoma cruzi. The experiment in a line: Antitrypanosomal activity against Trypanosoma cruzi K98 bloodstream form infected in C3H/HeNk mouse assessed as reduction in cardiac tissue inflammation at 30 to 75 mg/kg/day, po administered via gavage for 30 consecutive days starting from 90 days post infection and measured at 180 days post infection by hematoxylin and eosin staining based assay. It is filed as functional, organism-based.

Series [4] relates to Trypanosoma cruzi. Kind of series: Antitrypanosomal activity against Trypanosoma cruzi K98 bloodstream form infected in C3H/HeNk mouse assessed as effect on PR interval at 30 to 75 mg/kg/day, po administered via gavage for 30 consecutive days starting from 90 days post infection and measured at 120 to 170 days post infection by electrocardiographic analysis. Type of series: functional, organism-based.

Series [5] relates to Trypanosoma cruzi. Kind of series: Antitrypanosomal activity against Trypanosoma cruzi K98 bloodstream form infected in C3H/HeNk mouse assessed as effect on heart rate at 30 to 75 mg/kg/day, po administered via gavage for 30 consecutive days starting from 90 days post infection and measured at 120 to 170 days post infection by electrocardiographic analysis. Type of series: functional, organism-based.

Series [6] relates to Trypanosoma cruzi. The experiment in a line: Antitrypanosomal activity against Trypanosoma cruzi K98 bloodstream form infected in C3H/HeNk mouse assessed as change in QRS morphology at 30 mg/kg/day, po administered via gavage for 30 consecutive days starting from 90 days post infection and measured at 120 days post infection by electrocardiographic analysis (reference value: 25 %). Type of series: functional.

Series [7] in a line: Toxicity in C3H/HeNk mouse infected with Trypanosoma cruzi K98 bloodstream form assessed as decrease in body weight at 30 mg/kg/day, po administered via gavage for 30 consecutive days starting from 90 days post infection measured at 150 days post infection. Type of series: organism-based. The settings on record: in vivo.
The nature of series [8]: Toxicity in C3H/HeNk mouse infected with Trypanosoma cruzi K98 bloodstream form assessed as body weight gain at 75 mg/kg/day, po administered via gavage for 30 consecutive days starting from 90 days post infection measured up to 120 days post infection. The settings on record: in vivo. It is filed as organism-based.
Series [9] in a line: Toxicity in C3H/HeNk mouse infected with Trypanosoma cruzi K98 bloodstream form assessed as body weight gain at 30 mg/kg/day, po administered via gavage for 30 consecutive days starting from 90 days post infection measured up to 120 days post infection. Type of series: organism-based. The settings on record: in vivo.
Series [10] concerns Trypanosoma cruzi. The experiment in a line: Antitrypanosomal activity against Trypanosoma cruzi K98 bloodstream form infected in C3H/HeNk mouse assessed as effect on heart rate duration at 30 to 75 mg/kg/day, po administered via gavage for 30 consecutive days starting from 90 days post infection and measured at 120 to 170 days post infection by electrocardiographic analysis. Type of series: functional, organism-based.

Series [11] has as its system Trypanosoma cruzi. The experiment in a line: Antitrypanosomal activity against Trypanosoma cruzi K98 bloodstream form infected in C3H/HeNk mouse assessed as reduction in skeletal tissue inflammation at 75 mg/kg/day, po administered via gavage for 30 consecutive days starting from 90 days post infection and measured at 180 days post infection by hematoxylin and eosin staining based assay. Type of series: functional, organism-based.

The test system of series [12] is Trypanosoma cruzi. Kind of series: Antitrypanosomal activity against Trypanosoma cruzi K98 bloodstream form infected in C3H/HeNk mouse assessed as QRS morphology at 75 mg/kg/day, po administered via gavage for 30 consecutive days starting from 90 days post infection and measured at 170 days post infection by electrocardiographic analysis (reference value: 25 %). It is filed as functional.

Series [13] is described as follows: Toxicity in C3H/HeNk mouse infected with Trypanosoma cruzi K98 bloodstream form assessed as decrease in body weight at 15 mg/kg/day, po administered via gavage for 30 consecutive days starting from 90 days post infection measured at 150 days post infection in presence of benznidazole. It is filed as organism-based. The settings on record: in vivo.
Series [14] relates to Trypanosoma cruzi. Kind of series: Antitrypanosomal activity against Trypanosoma cruzi K98 bloodstream form infected in C3H/HeNk mouse assessed as reduction in parasite burden in cardiac muscle at 30 to 75 mg/kg/day, po administered via gavage for 30 consecutive days starting from 90 days post infection and measured at 180 days post infection by qRT-PCR analysis. It is filed as functional, organism-based.

The nature of series [15]: Toxicity in C3H/HeNk mouse infected with Trypanosoma cruzi K98 bloodstream form assessed as decrease in body weight at 75 mg/kg/day, po administered via gavage for 30 consecutive days starting from 90 days post infection measured at 150 days post infection. Type of series: organism-based. The settings on record: in vivo.
Series [16] is described as follows: Toxicity in C3H/HeNk mouse infected with Trypanosoma cruzi K98 bloodstream form assessed as decrease in body weight at 30 mg/kg/day, po administered via gavage for 30 consecutive days starting from 90 days post infection measured at 150 days post infection in presence of benznidazole. Type of series: organism-based. The settings on record: in vivo.
Series [17] has as its system Trypanosoma cruzi. The experiment in a line: Antitrypanosomal activity against Trypanosoma cruzi K98 bloodstream form infected in C3H/HeNk mouse assessed as change in QRS morphology at 75 mg/kg/day, po administered via gavage for 30 consecutive days starting from 90 days post infection and measured at 120 days post infection by electrocardiographic analysis (reference value: 25 %). It is filed as functional.

Series [18] concerns Trypanosoma cruzi. Kind of series: Antitrypanosomal activity against Trypanosoma cruzi K98 bloodstream form infected in C3H/HeNk mouse assessed as reduction in parasite burden in skeletal muscle at 30 to 75 mg/kg/day, po administered via gavage for 30 consecutive days starting from 90 days post infection and measured at 180 days post infection by qRT-PCR analysis. It is filed as functional, organism-based.

A further series has as its system Vero. The experiment in a line: Cytotoxicity against African green monkey Vero cells at 0.5 to 20 uM after 72 hrs by propidium iodide staining based flow cytometric analysis. It is filed as cell-based. The settings on record: chlorocebus sabaeus.
The test system of series [19] is Trypanosoma cruzi. Kind of series: Antitrypanosomal activity against Trypanosoma cruzi K98 bloodstream form infected in C3H/HeNk mouse assessed as change in QRS morphology at 30 mg/kg/day, po administered via gavage for 30 consecutive days starting from 90 days post infection and measured at 170 days post infection by electrocardiographic analysis (reference value: 25 %). Type of series: functional.

Series [20] concerns Trypanosoma cruzi. The experiment in a line: Antitrypanosomal activity against Trypanosoma cruzi K98 bloodstream form infected in C3H/HeNk mouse assessed as reduction in parasite burden in blood at 30 to 75 mg/kg/day, po administered via gavage for 30 consecutive days starting from 90 days post infection and measured at 180 days post infection by qRT-PCR analysis. Type of series: functional, organism-based.

Series [21] relates to Trypanosoma cruzi. Kind of series: Antitrypanosomal activity against Trypanosoma cruzi K98 bloodstream form infected in C3H/HeNk mouse assessed as effect on heart rate duration at 30 mg/kg/day, po administered via gavage for 30 consecutive days starting from 90 days post infection and measured at 120 to 170 days post infection in presence of benznidazole by electrocardiographic analysis. It is filed as functional, organism-based.

Series [22] has as its system Trypanosoma cruzi. Kind of series: Antitrypanosomal activity against Trypanosoma cruzi K98 bloodstream form infected in C3H/HeNk mouse assessed as adipocytes replacement in skeletal muscle by measuring number of adipocyte at 30 mg/kg/day, po administered via gavage for 30 consecutive days starting from 90 days post infection and measured at 180 days post infection in presence of benznidazole by hematoxylin and eosin staining based …. It is filed as functional.

Series [23] relates to Trypanosoma cruzi. Kind of series: Antitrypanosomal activity against Trypanosoma cruzi K98 bloodstream form infected in C3H/HeNk mouse assessed as reduction in parasite burden in skeletal muscle at 30 mg/kg/day, po administered via gavage for 30 consecutive days starting from 90 days post infection and measured at 180 days post infection in presence of benznidazole by qRT-PCR analysis. It is filed as functional, organism-based.

The test system of series [24] is Trypanosoma cruzi. The experiment in a line: Antitrypanosomal activity against Trypanosoma cruzi K98 bloodstream form infected in C3H/HeNk mouse assessed as change in QRS morphology at 30 mg/kg/day, po administered via gavage for 30 consecutive days starting from 90 days post infection and measured at 170 days post infection in presence of benznidazole by electrocardiographic analysis (reference value: 25 %). It is filed as functional.

The subject of series [25] is Trypanosoma cruzi. Kind of series: Antitrypanosomal activity against Trypanosoma cruzi K98 bloodstream form infected in C3H/HeNk mouse assessed as reduction in parasite burden in blood at 30 mg/kg/day, po administered via gavage for 30 consecutive days starting from 90 days post infection and measured at 180 days post infection in presence of benznidazole by qRT-PCR analysis. It is filed as functional, organism-based.

Series [26] has as its system Trypanosoma cruzi. Kind of series: Antitrypanosomal activity against Trypanosoma cruzi K98 bloodstream form infected in C3H/HeNk mouse assessed as effect on QT interval at 30 mg/kg/day, po administered via gavage for 30 consecutive days starting from 90 days post infection and measured at 120 to 170 days post infection in presence of benznidazole by electrocardiographic analysis. Type of series: functional, organism-based.

Series [27] concerns Trypanosoma cruzi. Kind of series: Antitrypanosomal activity against Trypanosoma cruzi K98 bloodstream form infected in C3H/HeNk mouse assessed as reduction in parasite burden in cardiac muscle at 30 mg/kg/day, po administered via gavage for 30 consecutive days starting from 90 days post infection and measured at 180 days post infection in presence of benznidazole by qRT-PCR analysis. It is filed as functional, organism-based.

Series [28] has as its system Trypanosoma cruzi. The experiment in a line: Antitrypanosomal activity against Trypanosoma cruzi K98 bloodstream form infected in C3H/HeNk mouse assessed as change in QRS morphology at 30 mg/kg/day, po administered via gavage for 30 consecutive days starting from 90 days post infection and measured at 120 days post infection in presence of benznidazole by electrocardiographic analysis (reference value: 25 %). It is filed as functional.

The test system of series [29] is Trypanosoma cruzi. Kind of series: Antitrypanosomal activity against Trypanosoma cruzi K98 bloodstream form infected in C3H/HeNk mouse assessed as reduction in cardiac tissue inflammation at 30 mg/kg/day, po administered via gavage for 30 consecutive days starting from 90 days post infection and measured at 180 days post infection in presence of benznidazole by hematoxylin and eosin staining based assay. Type of series: functional, organism-based.

Series [30] has as its system Trypanosoma cruzi. Kind of series: Antitrypanosomal activity against Trypanosoma cruzi K98 bloodstream form infected in C3H/HeNk mouse assessed as effect on RR interval at 30 mg/kg/day, po administered via gavage for 30 consecutive days starting from 90 days post infection and measured at 120 to 170 days post infection in presence of benznidazole by electrocardiographic analysis. Type of series: functional, organism-based.

Series [31] deals with Trypanosoma cruzi. Kind of series: Antitrypanosomal activity against Trypanosoma cruzi K98 bloodstream form infected in C3H/HeNk mouse assessed as effect on PR interval at 30 mg/kg/day, po administered via gavage for 30 consecutive days starting from 90 days post infection and measured at 120 to 170 days post infection in presence of benznidazole by electrocardiographic analysis. Type of series: functional, organism-based.

Series [32] can be described thus: Toxicity in C3H/HeNk mouse infected with Trypanosoma cruzi K98 bloodstream form assessed as body weight gain at 30 mg/kg/day, po administered via gavage for 30 consecutive days starting from 90 days post infection measured up to 120 days post infection in presence of benznidazole. Type of series: organism-based. The settings on record: in vivo.
In series [33] the test system is Trypanosoma cruzi. Kind of series: Antitrypanosomal activity against Trypanosoma cruzi K98 bloodstream form infected in C3H/HeNk mouse assessed as effect on heart rate at 30 mg/kg/day, po administered via gavage for 30 consecutive days starting from 90 days post infection and measured at 120 to 170 days post infection in presence of benznidazole by electrocardiographic analysis. Type of series: functional, organism-based.

On to `O=C(Cn1ccnc1[N+](=O)[O-])NCc1ccccc1` [BENZNIDAZOLE], for which the outcome in the series with Trypanosoma cruzi [1], in the series on Trypanosoma cruzi [2], with Trypanosoma cruzi [4], in the series on Trypanosoma cruzi [5], in the series on Trypanosoma cruzi [10] and in the series with Trypanosoma cruzi [11] was inactive. For the same compound, the result in the series with Trypanosoma cruzi [3], in the series on Trypanosoma cruzi [14], in the series with Trypanosoma cruzi [18] and in the series on Trypanosoma cruzi [20] was Active. The Activity is on record as 0% in the series with Trypanosoma cruzi [6]; “Non-Toxic” in series [7]; “Non-Toxic” in [8]; “Non-Toxic” in series [9]; 80% in the series with Trypanosoma cruzi [12]; “Non-Toxic” in series [13]. The Activity result in [15] is on record as “Toxic”; in series [16], “Non-Toxic”; in the series on Trypanosoma cruzi [17], 0%; with Vero it was “Non-Toxic”; with Trypanosoma cruzi [19], 0%.

Consider `CC(C)/N=c1\cc2n(-c3ccc(Cl)cc3)c3ccccc3nc-2cc1Nc1ccc(Cl)cc1` [CLOFAZIMINE], for which the result with Trypanosoma cruzi [21], in the series on Trypanosoma cruzi [26], in the series on Trypanosoma cruzi [27], in the series with Trypanosoma cruzi [29], with Trypanosoma cruzi [30] and in the series with Trypanosoma cruzi [31] was inactive. For the same compound, the result in the series with Trypanosoma cruzi [33] was inactive. The Activity in the series with Trypanosoma cruzi [22] is recorded as 1 - 3; with Trypanosoma cruzi [24], 0%; in the series on Trypanosoma cruzi [28], 0%; in series [32], “Non-Toxic”; in the series on Vero it was “Non-Toxic”. The outcome in the series on Trypanosoma cruzi [23] and with Trypanosoma cruzi [25] was Active.
